From ChEMBL document CHEMBL1122027, “N-Aralkyl substitution of 2-amino-5,6- and -6,7-dihydroxy-1,2,3,4-tetrahydronaphthalenes. 2. Derivatives of a hypotensive-positive inotropic agent” (1982)

How the values were obtained:
Canis familiaris [1] = assay: In vivo dose causing a 100% increase in right ventricular contractile force in mongrel dogs; assay type: functional, Canis lupus familiaris, Heart right ventricle
Canis familiaris [2] = assay: In vivo dose causing a 50% increase in right ventricular contractile force in mongrel dogs; assay type: functional, Canis lupus familiaris, Heart right ventricle
Canis familiaris [3] = organism: Canis familiaris; assay: Inotropic selectivity was assessed by normalizing changes in heart rate to the 50% levels in mongrel dogs; assay type: functional, Canis lupus familiaris
Canis familiaris [4] = organism: Canis familiaris; assay: Cardioselectivity was estimated by normalizing changes in diastolic blood pressure to the 100% levels of contractile force in mongrel dogs; assay type: functional, Canis lupus familiaris, Artery
Canis familiaris [5] = organism: Canis familiaris; assay: Cardioselectivity was estimated by normalizing changes in diastolic blood pressure to the 50% levels of contractile force in mongrel dogs; assay type: functional, Canis lupus familiaris, Artery
Canis familiaris [6] = organism: Canis familiaris; assay: Inotropic selectivity was assessed by normalizing changes in heart rate to the 100% levels in mongrel dogs; assay type: functional, Canis lupus familiaris

| SMILES | Inotropic potency (Canis familiaris [1]) | Inotropic potency (Canis familiaris [2]) | Delta HR (Canis familiaris [3]) | Delta blood pressure (Canis familiaris [4]) | Delta blood pressure (Canis familiaris [5]) | Delta HR (Canis familiaris [6]) |
| --- | --- | --- | --- | --- | --- | --- |
| CC(Cc1ccc(O)c(O)c1)NC1CCc2cc(O)c(O)cc2C1 (centres undefined) | 27 nM/kg | 11.4 nM/kg | -5 beats min-1 | -30 mmHg | -39 mmHg | 4 beats min-1 |
| CC(Cc1ccc(O)c(O)c1)NC1CCc2cc(O)ccc2C1 (centres undefined) | 85 nM/kg | 25 nM/kg | 30 beats min-1 | -66 mmHg | -46 mmHg | 49 beats min-1 |
| Oc1cc2c(cc1O)CC(NC1CCc3c(ccc(O)c3O)C1)CC2 (centres undefined) | 590 nM/kg | 210 nM/kg | 24 beats min-1 | -55 mmHg | -61 mmHg | 31 beats min-1 |
| CC(Cc1ccc(O)cc1)NC1CCc2cc(O)c(O)cc2C1 (centres undefined) |  | 680 nM/kg | 23 beats min-1 |  | -25 mmHg |  |
| CC(Cc1ccc(O)c(O)c1)NCCc1ccc(O)c(O)c1 (centres undefined) | 13 nM/kg | 4 nM/kg | 26 beats min-1 | -34 mmHg | -19 mmHg | 39 beats min-1 |
| COc1ccc(CC(C)NCCc2ccc(O)c(O)c2)cc1OC (centres undefined) | 1100 nM/kg | 490 nM/kg | 10 beats min-1 | -31 mmHg | -24 mmHg | 17 beats min-1 |
| Oc1cc2c(cc1O)CC(NC1CCc3cc(O)c(O)cc3C1)CC2 (centres undefined) | 2650 nM/kg | 961 nM/kg | 31 beats min-1 | 84 mmHg | -78 mmHg | 62 beats min-1 |
